Test results from paper PMC12362783 (Advanced Science, 2025).

Key:
MDA‐MB‐231 cells [1] = assay: Transwell invasion assay (Matrigel); assay type: cell-based; conditions: 24 h, vs AZD6738 and Olaparib alone or their combination
Experimental: (§1) For the wound‐healing assay, MDA‐MB‐231 cells were seeded into 6‐well plates and grown to 80% confluence. A scratch was made in the cell monolayer using a 20 µL pipette tip, and the cells were washed with PBS to remove floating cells and debris. The cells were then incubated in serum‐free medium. Cells are divided into control and drug treatment Cells in the scratched area were imaged at 0 and 48 h using microscopy, and the distance traveled by cells at the leading edge of the wound at each time point was measured. To assess cell migration, a transwell assay was performed. […] Following 24 h of incubation, the filters were fixed in 4% paraformaldehyde, stained with 0.1% crystal violet, and then imaged and counted under a microscope to determine the number of invading cells. To assess cell invasion, the transwell plate was coated with a layer of Matrigel, and the rest procedure is similar to what has been described above.

MDA‐MB‐468 cells [2] = assay: Transwell invasion assay (Matrigel); assay type: cell-based; conditions: 24 h, vs AZD6738 and Olaparib alone or their combination
Experimental: as §1

PARP5B = PARP5B (Homo sapiens, UniProt Q9H2K2); assay: PARP family selectivity; assay type: biochemical
Experimental: (§2) The PARP activity assay was performed by ChemPartner (Shanghai, China). Each well was precoated with histone (final conc.: 100 ng mL^−1) diluted in PBS buffer (contains 10 mmol L^−1 NaH2PO4 and 150 mmol L^−1 NaCl, pH 7.4) by incubation at 4 °C overnight. […] The reaction was initiated by the addition of 10 µL of PARP (final conc.: 0.007 nM/well) at room temperature for 60 min. Add 20 µL of anti‐Poly/Mono‐ADP Ribose Rabbit mAb. Incubate for 1.5 h at room temperature and wash the plate three times using PBST buffer. Add 20 µL of diluted (1:2000) anti‐rabbit IgG, HRP‐linked Antibody. Incubate for 1 h at room temperature and wash the plate three times using PBST buffer. Add 25 µL Femto‐ECL Substrate A and Femto‐ECL Substrate B (1:1) mix. Immediately read chemiluminescence on Envision (Revvity, USA).

PARP5A = PARP5A (Homo sapiens, UniProt O95271); assay: PARP family selectivity; assay type: biochemical
Experimental: as §2

ATM = ATM (Homo sapiens, UniProt Q13315); assay: PIKK family kinase selectivity; assay type: biochemical
PI3Kα = PI3Kα (Homo sapiens, UniProt P42336); assay: PIKK family kinase selectivity; assay type: biochemical
MDA‐MB‐231 cells [3] = assay: Comet assay, DNA damage; assay type: cell-based; conditions: 24 h, vs AZD6738, Olaparib, and their combination
PARP1 = PARP1 (Homo sapiens, UniProt P09874); assay: PARP enzymatic inhibition ELISA (PARP1); assay type: biochemical; conditions: n = 3, mean ± SD
[4] = Preliminary safety evaluation in xenografted mice (body weight, animal loss, H&E staining of organs); assay type: in vivo
Experimental: MDA‐MB‐468 cells (1 × 10^7) were implanted in the right flanks subcutaneously in female nude mice. When the implanted tumor grew to a volume of 110 mm^3, the animals were randomly divided into four groups, each group containing four animals. […] Tumor size and body weights were measured twice a week. On day 28, the mice were euthanized, tumors were harvested and weighed, and vital organs (heart, liver, spleen, lung, and kidney) were collected. Processed samples were saved for further safety evaluation.
The tumor sample and vital organs were immersed in 4% paraformaldehyde for 4 h and transferred to 70% ethanol. Individual lobes of the sample were placed in processing cassettes, dehydrated through a serial alcohol gradient, and embedded in paraffin wax blocks. Thick tissue sections (5 µm) were dewaxed in xylene, rehydrated through decreasing concentrations of ethanol, washed in PBS, and stained with H&E. After staining, the sections were dehydrated through increasing concentrations of ethanol and xylene. Images were acquired on a fluorescent inverted microscope (Nikon DS‐Ri1).

MDA‐MB‐231 cells [5] = assay: Cell cycle assay, flow cytometry (PI); assay type: cell-based; conditions: MDA‐MB‐231, 48 h; A7, B8 0.5 and 1.0 µM, controls 1.0 µM
Experimental: (§3) The cell cycle analysis was performed with cells seeded in 6‐well plates in growth media. The cells were allowed to attach overnight (8 h). The cultures were treated with different tested drugs for 48 h. After treatment, cells were collected and fixed with 70% pre‐cold ethanol in PBS and stored at −20 °C overnight. Then washed the cells with PBS twice, and incubated with 100 µg mL^−1 RNase A at 37 °C for 1 h, stained with propidium iodide for 30 min avoid light at room temperature. The stained cells were analyzed by flow cytometry. The percentages of cells in the G1, S, and G2/M phases were determined. The data were analyzed by FlowJo software (Tree Star, Inc., Ashland, OR).

MDA‐MB‐468 cells [6] = assay: Cell cycle assay, flow cytometry (PI); assay type: cell-based; conditions: MDA‐MB‐468, 48 h; A7, B8 0.5 and 1.0 µM, controls 1.0 µM
Experimental: as §3

MDA‐MB‐231 cells [7] = assay: Wound‐healing and transwell migration assay; assay type: cell-based; conditions: vs AZD6738 and Olaparib alone or their combination
Experimental: as §1

MDA‐MB‐231 cells [8] = assay: Immunofluorescence of γH2AX foci; assay type: cell-based; conditions: 48 h, vs Olaparib, AZD6738, and their combination
Experimental: (§4) Cells were fixed for 30 min in 4% paraformaldehyde and permeabilized for 30 min in 1% Triton X‐100 at 4 °C. After three rinses with PBS, cells were blocked for 30 min with 5% BSA and incubated with γH2AX antibody (1/1000 dilution, CST#9718) in 5% BSA overnight at 4 °C, after which they were rinsed three times with PBS and incubated with the secondary antibodies at room temperature for 1 h. Then, cells were washed with PBS three times, and the nucleus was stained with DAPI and fixed. Finally, images were visualized with the microscope and analyzed.

MDA‐MB‐468 cells [9] = assay: Immunofluorescence of γH2AX foci; assay type: cell-based; conditions: 48 h, vs Olaparib, AZD6738, and their combination
Experimental: as §4

[10] = Oral bioavailability (statement, no method); assay type: in vivo; conditions: preclinical models; necessitates I.P. delivery

Chain of PARP5B (Q9H2K2 whole entry, species assumed): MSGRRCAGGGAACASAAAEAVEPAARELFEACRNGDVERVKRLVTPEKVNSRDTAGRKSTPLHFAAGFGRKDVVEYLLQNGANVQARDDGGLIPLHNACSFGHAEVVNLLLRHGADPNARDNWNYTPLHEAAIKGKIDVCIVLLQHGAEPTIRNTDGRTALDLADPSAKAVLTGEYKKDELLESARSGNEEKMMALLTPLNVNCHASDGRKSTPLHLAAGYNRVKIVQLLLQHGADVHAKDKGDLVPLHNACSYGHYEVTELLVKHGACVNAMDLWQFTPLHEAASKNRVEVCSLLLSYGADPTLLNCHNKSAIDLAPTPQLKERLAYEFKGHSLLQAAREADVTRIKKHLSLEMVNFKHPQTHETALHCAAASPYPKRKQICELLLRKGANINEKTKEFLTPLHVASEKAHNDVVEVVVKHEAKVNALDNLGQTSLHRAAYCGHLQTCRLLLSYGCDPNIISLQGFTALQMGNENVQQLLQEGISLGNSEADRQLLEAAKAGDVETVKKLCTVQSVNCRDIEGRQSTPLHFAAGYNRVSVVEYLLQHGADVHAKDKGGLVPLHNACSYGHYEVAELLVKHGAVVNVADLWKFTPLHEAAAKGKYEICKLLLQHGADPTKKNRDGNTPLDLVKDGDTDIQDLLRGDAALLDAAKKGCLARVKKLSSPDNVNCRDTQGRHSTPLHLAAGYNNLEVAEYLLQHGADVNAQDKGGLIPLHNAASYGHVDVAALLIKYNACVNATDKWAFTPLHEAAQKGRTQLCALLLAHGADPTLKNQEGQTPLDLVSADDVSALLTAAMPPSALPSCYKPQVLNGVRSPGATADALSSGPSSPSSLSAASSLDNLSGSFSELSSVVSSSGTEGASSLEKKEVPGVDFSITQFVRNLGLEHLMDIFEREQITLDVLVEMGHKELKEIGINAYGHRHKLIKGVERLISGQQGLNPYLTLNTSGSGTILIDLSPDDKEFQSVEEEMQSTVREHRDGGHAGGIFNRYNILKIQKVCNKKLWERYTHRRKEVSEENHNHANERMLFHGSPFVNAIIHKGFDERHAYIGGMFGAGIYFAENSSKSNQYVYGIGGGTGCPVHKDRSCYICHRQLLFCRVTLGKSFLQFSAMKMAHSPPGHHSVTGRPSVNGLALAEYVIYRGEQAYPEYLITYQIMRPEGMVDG
Chain of PARP5A (O95271 whole entry, species assumed): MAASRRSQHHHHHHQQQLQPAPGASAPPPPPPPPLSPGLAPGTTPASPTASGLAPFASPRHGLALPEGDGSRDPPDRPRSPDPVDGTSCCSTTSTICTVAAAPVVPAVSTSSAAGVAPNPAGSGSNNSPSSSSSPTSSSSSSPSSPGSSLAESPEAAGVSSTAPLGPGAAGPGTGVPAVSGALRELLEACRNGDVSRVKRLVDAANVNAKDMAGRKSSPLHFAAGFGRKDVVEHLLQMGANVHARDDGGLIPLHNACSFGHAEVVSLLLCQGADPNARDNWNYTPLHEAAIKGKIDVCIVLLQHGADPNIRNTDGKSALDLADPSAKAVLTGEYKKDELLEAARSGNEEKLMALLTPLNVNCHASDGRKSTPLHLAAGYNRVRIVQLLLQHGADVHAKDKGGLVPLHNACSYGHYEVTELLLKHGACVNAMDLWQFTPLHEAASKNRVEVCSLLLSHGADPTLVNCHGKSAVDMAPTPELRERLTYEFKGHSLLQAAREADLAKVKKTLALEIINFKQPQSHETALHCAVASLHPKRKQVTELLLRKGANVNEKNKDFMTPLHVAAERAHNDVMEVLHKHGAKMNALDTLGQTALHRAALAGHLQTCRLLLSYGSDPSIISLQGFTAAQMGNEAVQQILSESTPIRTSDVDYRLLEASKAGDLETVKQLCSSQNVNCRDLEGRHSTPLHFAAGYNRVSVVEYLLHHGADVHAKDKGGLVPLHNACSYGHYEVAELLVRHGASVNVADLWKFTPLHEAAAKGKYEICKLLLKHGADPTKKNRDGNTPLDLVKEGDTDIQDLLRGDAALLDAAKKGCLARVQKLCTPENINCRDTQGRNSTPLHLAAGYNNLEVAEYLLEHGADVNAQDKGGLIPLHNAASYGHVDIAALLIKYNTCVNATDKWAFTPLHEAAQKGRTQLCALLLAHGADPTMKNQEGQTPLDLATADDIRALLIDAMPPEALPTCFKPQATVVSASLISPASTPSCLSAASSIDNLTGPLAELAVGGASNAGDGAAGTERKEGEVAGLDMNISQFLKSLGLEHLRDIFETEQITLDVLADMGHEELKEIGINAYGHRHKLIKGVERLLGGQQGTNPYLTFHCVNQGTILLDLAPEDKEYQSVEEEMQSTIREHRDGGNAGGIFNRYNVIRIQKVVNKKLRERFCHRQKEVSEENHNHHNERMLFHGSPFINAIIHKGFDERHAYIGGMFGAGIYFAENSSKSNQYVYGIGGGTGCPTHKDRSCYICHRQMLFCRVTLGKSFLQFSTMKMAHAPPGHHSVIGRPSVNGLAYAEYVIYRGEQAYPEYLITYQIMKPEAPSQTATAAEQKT
Chain of PARP1 (P09874 whole entry): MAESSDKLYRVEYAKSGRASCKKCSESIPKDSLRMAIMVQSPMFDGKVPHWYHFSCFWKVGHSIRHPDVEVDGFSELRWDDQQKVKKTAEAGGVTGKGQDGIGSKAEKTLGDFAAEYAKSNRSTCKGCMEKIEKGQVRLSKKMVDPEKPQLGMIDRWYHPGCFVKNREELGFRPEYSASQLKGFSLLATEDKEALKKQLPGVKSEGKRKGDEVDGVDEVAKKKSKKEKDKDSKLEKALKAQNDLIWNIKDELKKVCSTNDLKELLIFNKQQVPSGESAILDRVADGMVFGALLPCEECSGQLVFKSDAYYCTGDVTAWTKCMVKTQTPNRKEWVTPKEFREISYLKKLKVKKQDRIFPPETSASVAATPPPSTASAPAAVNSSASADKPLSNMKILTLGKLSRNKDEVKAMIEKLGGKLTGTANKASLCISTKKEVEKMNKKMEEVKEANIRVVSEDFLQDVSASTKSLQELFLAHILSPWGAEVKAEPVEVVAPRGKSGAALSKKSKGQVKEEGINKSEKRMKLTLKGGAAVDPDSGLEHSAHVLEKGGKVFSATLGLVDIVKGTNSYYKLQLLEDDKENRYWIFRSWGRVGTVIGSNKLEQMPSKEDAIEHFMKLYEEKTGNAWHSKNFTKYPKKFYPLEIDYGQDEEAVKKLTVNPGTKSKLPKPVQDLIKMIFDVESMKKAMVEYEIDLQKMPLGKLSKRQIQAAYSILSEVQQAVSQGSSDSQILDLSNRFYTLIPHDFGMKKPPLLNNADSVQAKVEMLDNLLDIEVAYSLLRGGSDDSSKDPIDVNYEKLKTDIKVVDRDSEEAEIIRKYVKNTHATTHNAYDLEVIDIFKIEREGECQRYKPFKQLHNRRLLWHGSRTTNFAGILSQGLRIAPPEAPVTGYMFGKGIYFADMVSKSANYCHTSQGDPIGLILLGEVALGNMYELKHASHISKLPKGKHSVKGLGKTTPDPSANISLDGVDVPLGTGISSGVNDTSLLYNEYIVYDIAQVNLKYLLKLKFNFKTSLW

With `C[C@@H]1COCCN1c1cc(CNC(=O)c2ccc(C(=O)N3CCN(C(=O)c4cc(Cc5n[nH]c(=O)c6ccccc56)ccc4F)CC3)cc2)nc(-c2ccnc3[nH]ccc23)n1` [Compound B8, (R)‐4‐(4‐(2‐fluoro‐5‐((4‐oxo‐3,4‐dihydrophthalazin‐1‐yl)methyl)benzoyl)piperazine‐1‐carbonyl)‐N‐((6‐(3‐methylmorpholino)‐2‐(1H‐pyrrolo[2,3‐b]pyridin‐4‐yl)pyrimidin‐4‐yl)methyl) benzamide] the “invasive capacity” value (MDA‐MB‐231 cells [1]) was “superior inhibitory effects on the invasive capacity”, the “invasive capacity” value (MDA‐MB‐468 cells [2]) was “superior inhibitory effects on the invasive capacity” and the IC50 (PARP5B) was 240 nM. For the same compound, the “PARP5B (selectivity over PARP1, fold)” value (PARP5B; fold of PARP1 selectivity over PARP5B) was 631.6 fold, the IC50 (PARP5A) was 116 nM and the “PARP5A (selectivity over PARP1, fold)” value (PARP5A; fold of PARP1 selectivity over PARP5A) was 305 fold. The IC50 (ATM) was > 5 µM, the IC50 (PI3Kα) was > 2500 nM and the “comet assay tail intensity” value (MDA‐MB‐231 cells [3]) was “markedly increased tail intensity”. The IC50 (PARP1) was 0.38 ± 0.08 nM, the “effect on body weight” value ([4]; B8 25 and 50 mg/kg I.P., 28 days, nude mice) was “no significant effect on body weight” and the “H&E staining of heart, liver, spleen, lungs, and kidneys” value ([4]; after 28 days of continuous administration) was “did not cause significant changes in organ structure or cellular morphology”. For the same compound, the “effect on cell cycle distribution” value (MDA‐MB‐231 cells [5]) was “markedly increased the proportion of G2/M phase cells”, the “effect on cell cycle distribution” value (MDA‐MB‐468 cells [6]) was “markedly increased the proportion of G2/M phase cells” and the “migratory capacity” value (MDA‐MB‐231 cells [7]) was “superior inhibitory effect on the migratory capacity”. For the same compound, the “γH2AX foci formation” value (MDA‐MB‐231 cells [8]) was “significantly increased the formation of γH2AX foci”, the “γH2AX foci formation” value (MDA‐MB‐468 cells [9]) was “significantly increased the formation of γH2AX foci” and the oral bioavailability [10] was “poor oral bioavailability”.
